Biological target: Beta-galactosidase (Escherichia coli, UniProt Q8VNN2)
Assay: PubChem AID 485352

Chain of Beta-galactosidase (Q8VNN2 whole entry): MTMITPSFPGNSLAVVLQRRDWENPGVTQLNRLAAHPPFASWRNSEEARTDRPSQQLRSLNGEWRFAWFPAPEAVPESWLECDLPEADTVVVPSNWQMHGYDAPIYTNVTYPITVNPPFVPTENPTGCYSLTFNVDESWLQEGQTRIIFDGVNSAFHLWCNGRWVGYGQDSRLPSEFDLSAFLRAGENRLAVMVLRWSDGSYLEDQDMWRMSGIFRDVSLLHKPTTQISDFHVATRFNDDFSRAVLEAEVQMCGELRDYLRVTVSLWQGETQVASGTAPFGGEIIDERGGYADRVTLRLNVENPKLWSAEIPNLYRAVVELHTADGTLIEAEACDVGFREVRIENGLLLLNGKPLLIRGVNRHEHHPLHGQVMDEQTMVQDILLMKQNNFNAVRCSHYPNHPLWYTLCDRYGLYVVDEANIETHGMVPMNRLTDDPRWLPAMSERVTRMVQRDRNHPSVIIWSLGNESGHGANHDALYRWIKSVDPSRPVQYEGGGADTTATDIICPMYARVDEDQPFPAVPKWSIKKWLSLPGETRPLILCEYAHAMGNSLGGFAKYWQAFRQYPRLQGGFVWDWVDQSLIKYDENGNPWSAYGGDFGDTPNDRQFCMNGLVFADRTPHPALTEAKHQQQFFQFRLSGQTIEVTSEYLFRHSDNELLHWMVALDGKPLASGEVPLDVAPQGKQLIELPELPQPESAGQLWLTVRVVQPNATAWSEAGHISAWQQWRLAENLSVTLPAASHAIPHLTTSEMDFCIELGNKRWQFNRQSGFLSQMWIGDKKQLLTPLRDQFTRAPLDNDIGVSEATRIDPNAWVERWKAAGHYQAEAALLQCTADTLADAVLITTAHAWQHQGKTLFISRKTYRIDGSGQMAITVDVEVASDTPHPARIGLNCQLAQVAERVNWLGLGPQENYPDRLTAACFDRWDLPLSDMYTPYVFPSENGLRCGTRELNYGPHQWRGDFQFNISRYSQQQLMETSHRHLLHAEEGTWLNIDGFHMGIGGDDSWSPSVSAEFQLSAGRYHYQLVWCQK

Work on `CCOC(=O)C1C(C)=NC2=C(C(=O)CC(c3cccs3)C2)C1c1cccs1` (stereo unspecified) [2-Methyl-5-oxo-4,7-di-thiophen-2-yl-1,4,5,6,7,8-hexahydro-quinoline-3-carboxylic acid ethyl ester] yielded an EC50 of 39.3 µM.

Reference: BindingDB's records for doi:10.7270/Q2SN07DK (Burnham Center For Chemical Genomics, 2010)
